# What was measured:
# [1] = test system: Salmonella typhimurium; experiment: Antimutagenic activity in Salmonella Typhimurium T-98 assessed as inhibition of 2-aminoanthracene-induced mutation at 150 ug/plate; assay type: functional, Salmonella enterica subsp. enterica serovar Typhimurium
# [2] = test system: Salmonella typhimurium; experiment: Antimutagenic activity in Salmonella Typhimurium T-98 assessed as inhibition of 2-aminoanthracene-induced mutation at 300 ug/plate; assay type: functional, Salmonella enterica subsp. enterica serovar Typhimurium
# [3] = test system: Salmonella typhimurium; experiment: Antimutagenic activity in Salmonella Typhimurium T-98 assessed as inhibition of 2-aminoanthracene-induced mutation at 75 ug/plate; assay type: functional, Salmonella enterica subsp. enterica serovar Typhimurium
# [4] = test system: Salmonella typhimurium; experiment: Antimutagenic activity in Salmonella Typhimurium T-98 assessed as inhibition of 2-aminoanthracene-induced mutation at 37.5 ug/plate; assay type: functional, Salmonella enterica subsp. enterica serovar Typhimurium
# [5] = test system: Salmonella typhimurium; experiment: Antimutagenic activity in Salmonella Typhimurium T-98 assessed as inhibition of acetylaminofluorene-induced mutation at 300 ug/plate; assay type: functional, Salmonella enterica subsp. enterica serovar Typhimurium
# [6] = test system: Salmonella typhimurium; experiment: Antimutagenic activity in Salmonella Typhimurium T-98 assessed as inhibition of acetylaminofluorene-induced mutation at 150 ug/plate; assay type: functional, Salmonella enterica subsp. enterica serovar Typhimurium
# [7] = test system: Salmonella typhimurium; experiment: Antimutagenic activity in Salmonella Typhimurium T-98 assessed as inhibition of acetylaminofluorene-induced mutation at 75 ug/plate; assay type: functional, Salmonella enterica subsp. enterica serovar Typhimurium
# [8] = test system: Salmonella typhimurium; experiment: Antimutagenic activity in Salmonella Typhimurium T-98 assessed as inhibition of acetylaminofluorene-induced mutation at 37.5 ug/plate; assay type: functional, Salmonella enterica subsp. enterica serovar Typhimurium
# [9] = test system: Salmonella typhimurium; experiment: Antimutagenic activity in Salmonella Typhimurium T-100 assessed as inhibition of ethyl methanesulfonate-induced mutation at 300 ug/plate; assay type: functional, Salmonella enterica subsp. enterica serovar Typhimurium
# [10] = test system: Salmonella typhimurium; experiment: Antimutagenic activity in Salmonella Typhimurium T-100 assessed as inhibition of ethyl methanesulfonate-induced mutation at 150 ug/plate; assay type: functional, Salmonella enterica subsp. enterica serovar Typhimurium
# [11] = test system: Salmonella typhimurium; experiment: Antimutagenic activity in Salmonella Typhimurium T-100 assessed as inhibition of ethyl methanesulfonate-induced mutation at 75 ug/plate; assay type: functional, Salmonella enterica subsp. enterica serovar Typhimurium
# [12] = test system: Salmonella typhimurium; experiment: Antimutagenic activity in Salmonella Typhimurium T-100 assessed as inhibition of ethyl methanesulfonate-induced mutation at 37.5 ug/plate; assay type: functional, Salmonella enterica subsp. enterica serovar Typhimurium
# [13] = test system: Salmonella typhimurium; experiment: Toxicity to Salmonella Typhimurium at 0.3 mg/plate; assay type: organism-based, Salmonella enterica subsp. enterica serovar Typhimurium; settings: in vivo
# [14] = test system: Salmonella typhimurium; experiment: Toxicity to Salmonella Typhimurium at 0.6 mg/plate; assay type: organism-based, Salmonella enterica subsp. enterica serovar Typhimurium; settings: in vivo
Structure (SMILES),inhibition (INH) [1] [%],inhibition (INH) [2] [%],inhibition (INH) [3] [%],inhibition (INH) [4] [%],inhibition (INH) [5] [%],inhibition (INH) [6] [%],inhibition (INH) [7] [%],inhibition (INH) [8] [%],inhibition (INH) [9] [%],inhibition (INH) [10] [%],inhibition (INH) [11] [%],inhibition (INH) [12] [%],Activity [13],Activity [14]
COc1ccc(/C=C2\COc3c(ccc(O)c3O)C2=O)cc1 [INTRICATINOL],57,87,36,8,70,54,48,26,74,82,74,30,Non-toxic,Non-toxic
COc1ccc(/C=C2\COc3c(ccc(OC)c3O)C2=O)cc1 [INTRICATIN],84,62,92,70,7,0,0,8,45,27,4,9,Non-toxic,Non-toxic

# From ChEMBL document CHEMBL1147295, “Plant antimutagens, 6. Intricatin and intricatinol, new antimutagenic homoisoflavonoids from Hoffmanosseggia intricata” (J Nat Prod, 1989)
